Key:
[1] = Residual total halogen (DPD) after adding sodium hypochlorite to borohydride solution; assay type: physicochemical; settings: for Total Halogen without DMDMH: borohydride solution, no DMDMH; for Total Halogen with DMDMH: borohydride solution treated with DMDMH
Description: The remaining halogen concentration was then measured by standard DPD total halogen methodologies over time.
(§1) For comparison, the residual total halogen (as Cl2) was analyzed without the use of dimethyloldimethylhydantoin.

[2] = ORP of sodium borohydride solution over time after adding aldehyde donor; assay type: physicochemical
Description: Aqueous solutions containing sodium borohydride were mixed at 21° C. to obtain a solution having an initial borohydride content (as NaBH4) of 30-50 ppm, an alkalinity (as CaCO3) of 400 ppm, and a pH of 8.5-9.5. The temperature of the solution was maintained at 21° C. and the ORP of the solution was measured at specified time intervals. The procedure consisted of adding a known amount of aldehyde donor, such as dimethyloldimethylhydantoin or glyoxal, to the samples at a known molar ratio with respect to the borohydride content and following the time-dependence of the ORP.
as §1

[3] = 2 min after addition of sodium hypochlorite
[4] = 43 min after addition of sodium hypochlorite

Row | SMILES | Total Halogen without DMDMH [1, 3] | Total Halogen without DMDMH [1, 4] | Total Halogen with DMDMH [1, 3] | Total Halogen with DMDMH [1, 4] | ORP - DMDMH treated [2, 3] | ORP - DMDMH treated [2, 4]
1 | OCl [sodium hypochlorite, reference compound] | <0.1 ppm as Cl2 | <0.1 ppm as Cl2 |  |  |  | 
2 | CC1(C)C(=O)N(CO)C(=O)N1CO [DMDMH, dimethyloldimethylhydantoin] |  |  | 1.59 ppm as Cl2 | 1.33 ppm as Cl2 | −251 mV | −77 mV

Source: patent US8808500B2, “Method for the use of oxidants for microbial control under reducing conditions” (Lonza Inc., priority 2011, dated 2014)
